Source: patent US12060360B2, “Lysyl oxidase inhibitors” (The Institute of Cancer Research: Royal Cancer Hospital, priority 2017, dated 2024)

Legend:
LOX = biological target: T1, LOX (Mus musculus, UniProt P28301); test: LOX activity in cysts assay (LOX-roGFP2 biosensor, MDCK cysts); type: cell-based; details: for inhibition at 10 µM: inhibitor added 30 min prior to imaging, read-out: LOX biosensor inhibition (cyst) @ 10 uM; for IC50: roGFP2 ratio at basal surface, read-out: LOX biosensor IC50 (cyst)
T1 construct: Full length LOX cDNA was then PCR cloned into pEGFP-N1 (Clonetech), or biosensor vector proGFP2-N1; expressed in transfected cells; host or cells: MDCK cells grown as cysts on Matrigel, G418-selected
T1 sequence (P28301 163-411): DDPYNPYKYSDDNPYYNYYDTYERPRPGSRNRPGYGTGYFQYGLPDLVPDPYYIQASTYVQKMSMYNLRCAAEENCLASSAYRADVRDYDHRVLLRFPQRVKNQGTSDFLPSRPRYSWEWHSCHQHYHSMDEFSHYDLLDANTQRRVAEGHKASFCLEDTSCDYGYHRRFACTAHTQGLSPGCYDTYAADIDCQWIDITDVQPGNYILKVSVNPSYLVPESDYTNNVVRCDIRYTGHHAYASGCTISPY
Method: LOX Activity in Cysts Assay (Tang et al, 2017).
All cell lines used in this study were purchased from American Type Culture Collection (ATCC). Mycoplasma contamination was routinely monitored by PCR. Cells used were not found to be Mycoplasma positive. MDCK cell lines were cultured in Dulbecco's Modified Eagle Medium (DMEM) supplemented with 10% fetal bovine serum (FBS) and 1% Penicillin Streptomycin solution (Pen Strep). For GFP constructs transfection in MDCK cells, lipofectamine 3000 was used according to manufactures protocols. Cells were either selected with G418 (Life Technologies) at 5 mg/ml. All cell culture reagents were purchased from Life Technologies.
To produce MDCK cysts, cells were cultured on Matrigel (Corning) with 2% Matrigel supplemented in DMEM with 10% FBS. Cysts were allowed to form for 10 days before subsequent studies.
Mouse LOX cDNA was purchased from OriGene. Full length LOX cDNA was then PCR cloned into pEGFP-N1 (Clonetech), or biosensor vector proGFP2-N1 (Hanson, 2004) using the following primers, […] (forward primer) and […] (reverse primer). For the insertion into pEGFP-N1 or proGFP2-N1, NheI and XhoI restriction sites were added to forward and reverse primers accordingly. Mutant LOX constructs were made using QuickChange II site-directed mutagenesis kit (Agilent Technologies) following manufacture's protocol using LOX-GFP as template. To generate, roGFP2 versions of LOX mutant constructs, LOX mutant cDNA was transferred from pEGFP-N1 to proGFP2-N1 using NheI and XhoI.
All photomicrographs were taken with a Leica TCS SP8 X confocal system. For LOX biosensor imaging, live MDCK cysts were used. The oxidised biosensor was excited using a 405 nm laser, while the reduced biosensor was excited with a 488 nm laser. Emission of the biosensor was recorded at 500 nm˜530 nm range using sequential scans. Ratio images were generated following a published protocol {Kardash, 2011 #376}. Note, while the published protocol generates YFP/CFP ratio images, we used it to generate Oxidised/Reduced (roGFP2 ratio) ratio images. The roGFP2 ratio at the basal surface of MDCK cysts was used to indicate LOX inhibition. LOX inhibitors were added 30 min prior to imaging.
For clarity, readout for DMSO treated cysts represents 0% inhibition (no inhibition) and readout for BAPN at 1 mM is used as 100% inhibition (full inhibition).

[1] = test system: MDA-MB-231 human breast adenocarcinoma; test: MDA-MB-231 xenografts, primary tumour volume T/C; type: in vivo; details: 200 mg/kg po qd, ratio of average tumour volume treated/vehicle control, p<0.05
Method: (§1) All procedures involving animals were approved by the Animal Welfare and Ethical Review Body of the Institute of Cancer Research and Cancer Research UK Manchester Institute in accordance with National Home Office regulations under the Animals (Scientific Procedures) Act 1986 and according to the guidelines of the Committee of the National Cancer Research Institute Tumour size was determined by caliper measurements of tumour length, width and depth and volume was calculated as volume=0.5236×length×width×depth (mm).
MDA-MB-231 xenografts. Ncr nude female mice at 6 weeks old from Charles River were injected into the third upper nipple mammary fat pad with MDA-MB-231 Luc 4×10^6 in 100 ul PB (50:50 Matrigel). When tumours reach a mean of 80 mm^3 around 10 days post cell inoculation the animals are allocated in 4 groups of 8. LOX inhibitor treatment is then administrated by oral gavage dosing, at 0.2 ml/20 g bodyweight once daily for up to 28 consecutive days. Tumours and weights are measured twice weekly using calipers and the animals can be imaged using non invasive method by bioluminescence using IVIS 200 imaging machine, weekly using 150 mg/kg luciferin administrate intraperitoneal or subcutaneous. At the end of the study the animals are culled, and samples taken, fixed or snap frozen in liquid nitrogen. Frozen samples kept at −80 degree centigrade until being analyzed and the fixed samples stained according to desired marker.
(§2) For therapeutic efficacy assessment, the ratio of average tumour volume between compound treated and vehicle control treated (T/C) is calculated. Reduction in tumour volume in the compound treated group compared to vehicle-treated control group results in T/C<1. The efficacy of LOX inhibitors described in this invention, as measured by T/C in a pancreatic cancer model, a colorectal cancer model and a breast cancer model is shown in Table 2 and is significant (p<0.05) for all the data presented.

[2] = test system: MMTV-PyMT breast transgenic model primary tumour; test: MMTV-PyMT transgenic mouse breast cancer model, primary tumour T/C; type: in vivo; details: 200 mg/kg po qd; ratio of average tumour volume treated/vehicle control; p<0.05
Method: as §1
MMTV-PyMT (Guy et al, 1992) (FVB) female mice were randomized by non-statistical methods to LOX inhibitor treatment groups from day 70 post-birth, when animals had no detectable tumour. Mice were treated daily by oral gavage with LOX inhibitor in vehicle, or daily vehicle (5% DMSO/2.5% Tween20 in water) by oral gavage. Tumour size was determined unblinded by caliper measurements of tumour length, width and depth and volume was calculated as 0.5236×length×width×depth (mm). In all experiments, mice were humanely killed and mammary tumours and lungs were collected when the primary tumours reached ethical limits or signs of ill health.
as §2

[3] = MDCK cysts, DMSO = 0%, BAPN 1 mM = 100% inhibition

Compound: COCCOc1ccc(N2C[C@H]3CN(C(=O)NCCO)C[C@@H]2C(C)(C)C3)cc1 [Example 27, (1S,5S)-N-(2-Hydroxyethyl)-6-(4-(2-methoxyethoxy)phenyl)-9,9-dimethyl-3,6-diazabicyclo[3.2.2]nonane-3-carboxamide]
- inhibition at 10 µM (LOX; [3]): 88%
- IC50 (LOX; MDCK cysts): 990 nM
- response vs control in vivo at 200 mg/kg [1]: 60%

Compound: CC1(C)C[C@@H]2CN(C(=O)NC3CCOCC3)C[C@H]1N(c1ccc(N3CCS(=O)(=O)CC3)cc1)C2 [Example 7, (1S,5S)-6-(4-(1,1-dioxidothiomorpholino)phenyl)-9,9-dimethyl-N-(tetrahydro-2H-pyran-4-yl)-3,6-diazabicyclo[3.2.2]nonane-3-carboxamide]
- inhibition at 10 µM (LOX; [3]): 88%
- IC50 (LOX; MDCK cysts): 540 nM
- response vs control in vivo at 200 mg/kg [1]: 34%
- T/C MMT-PyMT breast transgenic model - primary tumour [2]: 0.25

Compound: CC1(C)C[C@@H]2CN(CCCC#N)C[C@H]1N(c1ccc(N3CCS(=O)(=O)CC3)cc1)C2 [Example 39, 4-((1R,5S)-6-(4-(1,1-dioxidothiomorpholino)phenyl)-9,9-dimethyl-3,6-diazabicyclo[3.2.2]nonan-3-yl)butanenitrile]
- inhibition at 10 µM (LOX; [3]): 75%
- IC50 (LOX; MDCK cysts): 3180 nM
- response vs control in vivo at 200 mg/kg [1]: 48%

Compound: CNS(=O)(=O)N1C[C@@H]2CN(c3ccc(OC)cc3)[C@H](C1)C(C)(C)C2 [Example 56, (1S,5S)-6-(4-methoxyphenyl)-N,9,9-trimethyl-3,6-diazabicyclo[3.2.2]nonane-3-sulfonamide]
- inhibition at 10 µM (LOX; [3]): 74%

Compound: CCOc1ccc(N2C[C@H]3CN(C(=O)N4CCC(C#N)CC4)C[C@@H]2C(C)(C)C3)cc1 [Example 17, 1-((1S,5S)-6-(4-ethoxyphenyl)-9,9-dimethyl-3,6-diazabicyclo[3.2.2]nonane-3-carbonyl)piperidine-4-carbonitrile]
- inhibition at 2.5 µM (LOX; 2.5 uM (stated in cell), MDCK cysts, DMSO = 0%, BAPN 1 mM = 100% inhibition, read-out: LOX biosensor inhibition (cyst) @ 2.5 uM): 77%

Compound: CCOc1ccc(N2C[C@H]3CN(CCc4cn[nH]c4)C[C@@H]2C(C)(C)C3)cc1 [Example 48, (1R,5S)-3-(2-(1H-pyrazol-4-yl)ethyl)-6-(4-ethoxyphenyl)-9,9-dimethyl-3,6-diazabicyclo[3.2.2]nonane]
- inhibition at 10 µM (LOX; [3]): 100%

Compound: CC1(C)C[C@@H]2CN(C(=O)NCCO)C[C@H]1N(c1ccc(N3CCCCC3)cc1)C2 [Example 32, (1S,5S)-N-(2-hydroxyethyl)-9,9-dimethyl-6-(4-(piperidin-1-yl)phenyl)-3,6-diazabicyclo[3.2.2]nonane-3-carboxamide]
- inhibition at 10 µM (LOX; [3]): 90%
- IC50 (LOX; MDCK cysts): < 180 nM

Compound: CCOc1ccc(N2C[C@H]3CN(CCCC#N)C[C@@H]2C(C)(C)C3)cc1F [Example 45, 4-((1R,5S)-6-(4-Ethoxy-3-fluorophenyl)-9,9-dimethyl-3,6-diazabicyclo[3.2.2]nonan-3-yl)butanenitrile]
- inhibition at 10 µM (LOX; [3]): 42%

Compound: N#CCCN [BAPN, β-aminopropionitrile, reference compound]
- LOX inhibition in cysts assay (reference used as full inhibition) (LOX; 1 mM, readout used as 100% inhibition): 100%

Compound: CNC(=O)N1C[C@@H]2CN(c3ccc(N4CCS(=O)(=O)CC4)cc3)[C@H](C1)C(C)(C)C2 [Example 6, (1S,5S)-6-(4-(1,1-dioxidothiomorpholino)phenyl)-N,9,9-trimethyl-3,6-diazabicyclo[3.2.2]nonane-3-carboxamide]
- inhibition at 10 µM (LOX; [3]): 50%

Compound: CCOc1ccc(N2C[C@H]3CN(C4CCN(C)CC4)C[C@@H]2C(C)(C)C3)cc1 [Example 47, (1R,5S)-6-(4-ethoxyphenyl)-9,9-dimethyl-3-(1-methylpiperidin-4-yl)-3,6-diazabicyclo[3.2.2]nonane]
- inhibition at 10 µM (LOX; [3]): 90%

Compound: CCOc1ccc(N2C[C@H]3CN(C4=NCCO4)C[C@@H]2C(C)(C)C3)cc1 [Example 38, 2-((1S,5S)-6-(4-ethoxyphenyl)-9,9-dimethyl-3,6-diazabicyclo[3.2.2]nonan-3-yl)-4,5-dihydrooxazole]
- inhibition at 10 µM (LOX; [3]): 59%

Compound: CC1(C)C[C@@H]2CN(C(=O)NCCO)C[C@H]1N(c1ccc(N3CCS(=O)(=O)CC3)cc1)C2 [Example 5, (1S,5S)-6-(4-(1,1-dioxidothiomorpholino)phenyl)-N-(2-hydroxyethyl)-9,9-dimethyl-3,6-diazabicyclo[3.2.2]nonane-3-carboxamide]
- inhibition at 10 µM (LOX; [3]): 62%

Compound: CCOc1ccc(N2C[C@H]3CN(C(=O)Nc4cc(C)n[nH]4)C[C@@H]2C(C)(C)C3)cc1 [Example 25, (1S,5S)-6-(4-ethoxyphenyl)-9,9-dimethyl-N-(3-methyl-1H-pyrazol-5-yl)-3,6-diazabicyclo[3.2.2]nonane-3-carboxamide]
- inhibition at 10 µM (LOX; [3]): 73%

Compound: CC1(C)C[C@@H]2CN(C(=O)NCCO)C[C@H]1N(c1ccc(N3CCOCC3)cc1)C2 [Example 4, (1S,5S)—N-(2-hydroxyethyl)-9,9-dimethyl-6-(4-morpholinophenyl)-3,6-diazabicyclo[3.2.2]nonane-3-carboxamide]
- inhibition at 10 µM (LOX; [3]): 88%
- IC50 (LOX; MDCK cysts): 610 nM
- response vs control in vivo at 200 mg/kg [1]: 35%

Compound: CC1(C)C[C@@H]2CN(C(=O)CCC#N)C[C@H]1N(c1ccc(N3CCS(=O)(=O)CC3)cc1)C2 [Example 49, 4-((1 S,5S)-6-(4-(1,1-Dioxidothiomorpholino)phenyl)-9,9-dimethyl-3,6-diazabicyclo[3.2.2]nonan-3-yl)-4-oxobutanenitrile]
- inhibition at 10 µM (LOX; [3]): 100%
- response vs control in vivo at 200 mg/kg [1]: 62%

Compound: CC1(C)C[C@@H]2CN(C(=O)NCCO)C[C@H]1N(c1ccc(Br)cc1)C2 [Example 35, (1S,5S)-6-(4-Bromophenyl)-N-(2-hydroxyethyl)-9,9-dimethyl-3,6-diazabicyclo[3.2.2]nonane-3-carboxamide]
- inhibition at 10 µM (LOX; [3]): 84.1%

Compound: CC1(C)C[C@@H]2CN(C(=O)NC3CCS(=O)(=O)CC3)C[C@H]1N(c1ccc(N3CCS(=O)(=O)CC3)cc1)C2 [Example 11, (1S,5S)-N-(1,1-dioxidotetrahydro-2H-thiopyran-4-yl)-6-(4-(1,1-dioxidothiomorpholino)phenyl)-9,9-dimethyl-3,6-diazabicyclo[3.2.2]nonane-3-carboxamide]
- inhibition at 10 µM (LOX; [3]): 100%
